Patent US10584116B2, “Heterocyclic sulfonamide derivative and medicine containing same” (EA Pharma Co., Ltd., priority 2016, dated 2020)
pIC50: −log10 of the molar value.

Columns and labels:
human TRPA1 = human TRPA1 (Homo sapiens (Human), UniProt O75762); experiment: Measurement of TRPA1 antagonist activity (intracellular calcium increase induced by allylisothiocyanate in 293T cells transfected with human TRPA1); format: cell-based; conditions: 293T cells expressing human TRPA1, allylisothiocyanate stimulation, FLIPR Calcium4 fluorescence; read-out: hTRPA1 IC50
human TRPA1, sequence (O75762 whole entry): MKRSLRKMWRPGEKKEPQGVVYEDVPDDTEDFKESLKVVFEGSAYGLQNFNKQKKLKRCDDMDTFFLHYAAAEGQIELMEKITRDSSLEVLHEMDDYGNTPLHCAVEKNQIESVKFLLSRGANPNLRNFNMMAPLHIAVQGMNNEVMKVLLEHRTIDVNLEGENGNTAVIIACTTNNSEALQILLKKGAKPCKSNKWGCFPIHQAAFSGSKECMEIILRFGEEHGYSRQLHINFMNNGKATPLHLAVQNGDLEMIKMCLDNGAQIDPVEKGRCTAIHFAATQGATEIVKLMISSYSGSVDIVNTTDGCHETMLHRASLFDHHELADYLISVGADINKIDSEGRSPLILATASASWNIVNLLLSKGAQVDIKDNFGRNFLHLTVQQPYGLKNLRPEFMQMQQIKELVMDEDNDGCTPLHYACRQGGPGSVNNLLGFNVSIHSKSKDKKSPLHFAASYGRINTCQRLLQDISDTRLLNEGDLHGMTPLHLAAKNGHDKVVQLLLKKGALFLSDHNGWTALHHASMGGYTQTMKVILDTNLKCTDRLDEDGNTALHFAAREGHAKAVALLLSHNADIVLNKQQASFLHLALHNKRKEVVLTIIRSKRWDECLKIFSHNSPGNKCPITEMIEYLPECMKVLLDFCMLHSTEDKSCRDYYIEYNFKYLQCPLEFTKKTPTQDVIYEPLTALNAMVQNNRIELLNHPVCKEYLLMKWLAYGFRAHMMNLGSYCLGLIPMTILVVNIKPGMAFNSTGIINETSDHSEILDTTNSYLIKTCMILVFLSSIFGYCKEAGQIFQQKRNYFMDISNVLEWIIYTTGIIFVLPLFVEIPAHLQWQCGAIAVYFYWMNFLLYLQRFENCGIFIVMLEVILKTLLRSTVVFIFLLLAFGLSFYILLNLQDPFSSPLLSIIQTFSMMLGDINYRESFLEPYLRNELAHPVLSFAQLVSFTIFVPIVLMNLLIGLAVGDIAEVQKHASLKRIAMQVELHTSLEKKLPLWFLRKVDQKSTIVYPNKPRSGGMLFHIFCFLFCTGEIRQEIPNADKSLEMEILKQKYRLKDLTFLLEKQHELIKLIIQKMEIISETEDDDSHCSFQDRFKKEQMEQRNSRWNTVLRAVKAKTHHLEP
Protocol: Measurement of TRPA1 Antagonist Activity
Human TRPA1 Expression Plasmid
Using cDNA encoding human TRPA1 (GenBank accession No. NM_007332) (manufactured by Kazusa DNA Research Institute, item No. FHC07217) as a template, primer 1 (SEQ ID NO: 1) and primer 2 (SEQ ID NO: 2), PCR by PfuUltra High-Fidelity DNA Polymerase (Stratagene) was performed, and full-length human TRPA1 gene was amplified.
A recognition site (underlined) of restriction enzyme HindIII was added to the 5′ end of human TRPA1 gene, and XbaI site (underlined) was added to the 3′ end of human TRPA1 gene, and GTT of the template sequence was changed to termination codon TAG (bold). The obtained double stranded DNA was enzyme-digested with HindIII and XbaI, and introduced into a multicloning site of expression plasmid pcDNA3.1/zeo(+) (manufactured by Invitrogen) to give a human TRPA1 expression plasmid.
Human embryonic kidney-derived 293T cells were cultured in Dulbecco's Modified Eagle Medium containing 10% fetal bovine serum, 10 unit penicillin, and 10 μg streptomycin. One day before assay, 3×10^6 of 293T cells were plated on a petri dish having a diameter of 10 cm, and cultured in a CO2 incubator for 24 hr. OPTI-MEM I Reduced Serum Media (Invitrogen) (600 μL), Mirus TransIT-293 (Mirus Bio) (18 μL), and human TRPA1 expression plasmid (6 μg) were mixed, the total amount of the mixture was added to the cells on the petri dish to allow for gene transfer. The cells were recovered about for 8 hr later, plated on a poly-D-lysine coated 384 well black/clear bottom plate at 12,000 cells/well, and cultured overnight.
Measurement of Intracellular Calcium Increase
The medium was removed from the 384 well plate, calcium indicator (Molecular Device, trade name: FLIPR Calcium4 Assay Kit) dissolved in HBSS (Thermo Fisher Scientific) (pH 7.2) containing 20 mM HEPES was added (38 μL/well), and the cells were stained in a CO2 incubator for 1 hr. The 384 well plate was stood at room temperature for not less than 15 min, set on FDSS7000 (Hamamatsu Photonics K.K.), and a test substance solution was added at 10 μL/well. After 10 min, allylisothiocyanate solution (12 μL/well) was added, the relative fluorescence intensity was measured for 5 min after addition of the allylisothiocyanate solution.
Test Substance Preparation
Preparation of Test Substance Solution and Allylisothiocyanate Solution
A test substance solution was prepared to have a composition of HBSS (Thermo Fisher Scientific) (pH 7.2) containing 0.48% dimethyl sulfoxide, a test substance at 4.8-fold concentration of the evaluation concentration, 0.1% bovine serum albumin and 20 mM HEPES. An allylisothiocyanate solution was prepared to have a composition of HBSS (Thermo Fisher Scientific) (pH 7.2) containing 0.1% dimethyl sulfoxide, 100 μM allylisothiocyanate, 0.1% bovine serum albumin and 20 mM HEPES.
Calculation of Antagonist Activity
The activity rate of a test substance at each concentration was calculated, wherein the relative fluorescence intensity change of a well free of a test substance and containing allylisothiocyanate is 100% activity rate, and the relative fluorescence intensity change of a well free of a test substance and allylisothiocyanate is 0% activity rate. The inhibitory rate of a test substance at each concentration was calculated by subtracting the activity rate of the test substance from 100% activity rate, and the concentration of a test substance showing 50% inhibitory rate was calculated as IC50 from the sigmoid approximate curve by XLfit (idbs).

TRPA1 channel = TRPA1 channel (Rattus norvegicus (Rat), UniProt Q6RI86); experiment: AITC-induced rat blood flow evaluation test; format: in vivo; conditions: for rat blood flow model (% inh.): oral, 60 min before AITC (1%) application to ear, male SD rats
TRPA1 channel, sequence (Q6RI86 whole entry): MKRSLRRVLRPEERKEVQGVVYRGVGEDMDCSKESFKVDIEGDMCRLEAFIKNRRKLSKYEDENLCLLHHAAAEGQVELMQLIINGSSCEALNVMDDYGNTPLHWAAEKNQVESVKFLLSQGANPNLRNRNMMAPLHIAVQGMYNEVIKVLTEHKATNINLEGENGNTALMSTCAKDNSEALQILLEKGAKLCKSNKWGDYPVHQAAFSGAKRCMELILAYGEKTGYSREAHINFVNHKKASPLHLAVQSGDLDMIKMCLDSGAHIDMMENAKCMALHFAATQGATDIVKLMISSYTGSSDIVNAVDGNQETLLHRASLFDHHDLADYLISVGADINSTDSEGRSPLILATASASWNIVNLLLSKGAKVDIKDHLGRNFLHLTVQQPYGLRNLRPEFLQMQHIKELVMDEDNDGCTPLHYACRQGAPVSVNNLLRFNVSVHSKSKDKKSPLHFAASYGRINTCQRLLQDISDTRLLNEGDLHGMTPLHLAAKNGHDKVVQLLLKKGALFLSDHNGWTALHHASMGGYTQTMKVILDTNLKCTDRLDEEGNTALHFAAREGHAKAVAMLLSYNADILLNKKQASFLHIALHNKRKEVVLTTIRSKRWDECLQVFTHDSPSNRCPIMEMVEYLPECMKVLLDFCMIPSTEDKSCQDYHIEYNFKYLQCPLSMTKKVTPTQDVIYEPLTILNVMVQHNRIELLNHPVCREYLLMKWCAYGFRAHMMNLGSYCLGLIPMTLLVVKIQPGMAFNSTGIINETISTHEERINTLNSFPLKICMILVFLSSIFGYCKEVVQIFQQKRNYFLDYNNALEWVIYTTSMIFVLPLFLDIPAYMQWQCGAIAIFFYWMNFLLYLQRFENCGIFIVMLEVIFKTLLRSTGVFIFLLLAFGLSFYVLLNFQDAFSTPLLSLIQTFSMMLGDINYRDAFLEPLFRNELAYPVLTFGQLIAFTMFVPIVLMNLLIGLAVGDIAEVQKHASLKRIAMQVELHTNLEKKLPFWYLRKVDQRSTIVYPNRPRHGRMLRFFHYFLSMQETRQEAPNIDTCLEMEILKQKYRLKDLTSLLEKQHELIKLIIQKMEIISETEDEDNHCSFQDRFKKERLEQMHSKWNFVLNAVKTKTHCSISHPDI
Protocol: AITC-Induced Rat Blood Flow Evaluation Test
To evaluate the effectiveness of the test substance in vivo, allylisothiocyanate (AITC)-induced blood flow evaluation test was performed using rat.
AITC is a selective agonist of the TRPA1 channel, and causes an increase in the peripheral blood flow through TRPA1 activation when applied to animal. Therefore, the intensity of the TRPA1 antagonist action of the test substance in the living body can be evaluated by measuring the increase in the peripheral blood flow after AITC application.
1. Administration of Test Substance to Animal
As the animal, 9-11-week-old male SD rats were used. A test substance was orally administered 60 min before AITC application and evaluated. On the previous day, the blood flow was measured when vehicle was administered to the same individual.
2. Evaluation of AITC-Induced Blood Flow
Under isoflurane anesthesia, the rats were placed in a prone position and a laser was irradiated with a probe of a laser Doppler flowmeter (OMEGA FLOW FLO-N1 neuro science, inc) at a distance of 1 cm from the ear of the rat, and the blood flow was measured, which was recorded using Power lab. After confirmation of stable blood flow, 15 μL of AITC (1%) solution was applied to be spread on the ear of the rat and the blood flow was measured for 20 min.
3. Calculatuin of Inhibitory Rate
Mean blood flow for 10 seconds at each analysis time point (1, 5, 10, 15, 20 min) was calculated, and the amount of change from the blood flow before AITC application was calculated as AUC (Area under the curve). AUC (% of baseline) was determined by normalizing the value obtained by (mean of AUC after test substance administration/mean of AUC after vehicle administration to the same individual)×100 with the ratio of AUC obtained by vehicle administration for the both days. The inhibition ratio was determined by 100−AUC (% of baseline).

| SMILES | pIC50 (human TRPA1) | also measured |
| --- | --- | --- |
| CC(C)n1c(=O)c(CNC(=O)[C@@H]2C=CCN2S(=O)(=O)c2cc3cc(F)ccc3o2)cn(-c2ccc(C(F)(F)F)cc2)c1=O [Example 16, (2S)-1-(5-fluorobenzofuran-2-yl)sulfonyl-N-[[3-isopropyl-2,4-dioxo-1-[4-(trifluoromethyl)phenyl]-pyrimidin-5-yl]methyl]-2,5-dihydropyrrole-2-carboxamide] | 8.44 |  |
| CCn1c(=O)c(CNC(=O)[C@@H]2CCCN2S(=O)(=O)c2cc3ccccc3o2)cn(-c2ccc(C(F)(F)F)cc2)c1=O [Example 2, (2S)-1-(benzofuran-2-ylsulfonyl)-N-[[3-ethyl-2,4-dioxo-1-[4-(trifluoromethyl)phenyl]pyrimidin-5-yl]methyl]pyrrolidine-2-carboxamide] | 7.59 |  |
| CC(C)n1c(=O)c(CNC(=O)[C@@H]2CCCN2S(=O)(=O)c2cc3ccccc3o2)cn(-c2ccc(C(F)(F)F)cc2)c1=O [Example 1, (2S)-1-(benzofuran-2-ylsulfonyl)-N-[[3-isopropyl-2,4-dioxo-1-[4-(trifluoromethyl)phenyl]pyrimidin-5-yl]methyl]pyrrolidine-2-carboxamide] | 7.80 | AITC-induced increase in the blood flow (TRPA1 channel; FIG. 1, rats, doses 0.3, 1 and 3 mg/kg): suppressed; rat blood flow model (% inh.) (TRPA1 channel; dose 0.3 mg/kg): 45 % inh.; rat blood flow model (% inh.) (TRPA1 channel; dose 1 mg/kg): 56 % inh.; rat blood flow model (% inh.) (TRPA1 channel; dose 3 mg/kg): 58 % inh. |
| CC(C)n1cc(CNC(=O)[C@@H]2CCCN2S(=O)(=O)c2cc3cc(F)ccc3o2)cc(-c2ccc(C(F)(F)F)cn2)c1=O [Example 51, (2S)-1-(5-fluorobenzofuran-2-yl)sulfonyl-N-[[1-isopropyl-6-oxo-5-[5-(trifluoromethyl)-2-pyridyl]-3-pyridyl]methyl]pyrrolidine-2-carboxamide] | 7.09 |  |
| CC(C)n1c(=O)c(CNC(=O)[C@@H]2CCCN2S(=O)(=O)c2cc3cnccc3o2)cn(-c2ccc(C(F)(F)F)cn2)c1=O [Example 36, (2S)-1-fro[3,2-c]pyridin-2-ylsulfonyl-N-[[3-isopropyl-2,4-dioxo-1-[5-(trifluoromethyl)-2-pyridyl]pyrimidin-5-yl]methyl]pyrrolidine-2-carboxamide] | 6.70 |  |
| CC(C)n1c(=O)c(CNC(=O)[C@@H]2CCCN2S(=O)(=O)c2ccc(Cl)s2)cn(-c2ccc(C(F)(F)F)cc2)c1=O [Example 11, (2S)-1-[(5-chloro-2-thienyl)sulfonyl]-N-[[3-isopropyl-2,4-dioxo-1-[4-(trifluoromethyl)phenyl]-pyrimidin-5-yl]methyl]pyrrolidine-2-carboxamide] | 7.48 |  |
| CC(C)n1cc(-c2ccc(C(F)(F)F)cc2)cc(CNC(=O)[C@@H]2CCCN2S(=O)(=O)c2cc3c(F)cccc3o2)c1=O [Example 44, (2S)-1-(4-fluorobenzofuran-2-yl)sulfonyl-N-[[1-isopropyl-2-oxo-5-[4-(trifluoromethyl)phenyl]-3-pyridyl]methyl]pyrrolidine-2-carboxamide] | 6.36 |  |
| CC(C)n1c(=O)c(CNC(=O)[C@H](C)NS(=O)(=O)c2cc3cc(F)ccc3o2)cn(-c2ccc(C(F)(F)F)cc2)c1=O [Example 24] | 7.38 |  |
| CC(C)n1c(=O)c(CNC(=O)[C@@H]2[C@@H](O)CCN2S(=O)(=O)c2cc3cc(F)ccc3o2)cn(-c2ccc(C(F)(F)F)cn2)c1=O [Example 35, (2S,3S)-1-(5-fluorobenzofuran-2-yl)sulfonyl-3-hydroxy-N-[[3-isopropyl-2,4-dioxo-1-[5-(trifluoromethyl)-2-pyridyl]pyrimidin-5-yl]methyl]pyrrolidine-2-carboxamide] | 6.80 |  |
